Experiment: xn = mol fraction of the nth substance listed
Details: 101 kPa, Liquid

Cc1ccc(C)cc1 [1,4-dimethylbenzene] + CN1CCCC1=O
Details | mass density [kg/m3]
293.15 K, x1 = 0.0511 | 1023.02
293.15 K, x1 = 0.1204 | 1010.11
293.15 K, x1 = 0.1985 | 995.8
293.15 K, x1 = 0.2451 | 987.37
293.15 K, x1 = 0.2987 | 977.77
293.15 K, x1 = 0.3458 | 969.44
293.15 K, x1 = 0.4012 | 959.72
293.15 K, x1 = 0.4781 | 946.42
293.15 K, x1 = 0.5314 | 937.3
293.15 K, x1 = 0.5984 | 925.99
293.15 K, x1 = 0.6558 | 916.4
293.15 K, x1 = 0.7154 | 906.57
293.15 K, x1 = 0.7841 | 895.34
293.15 K, x1 = 0.8512 | 884.52
293.15 K, x1 = 0.9254 | 872.69
293.15 K, x1 = 1 | 860.95
303.15 K, x1 = 0.0645 | 1011.3
303.15 K, x1 = 0.1151 | 1001.91
303.15 K, x1 = 0.1814 | 989.76
303.15 K, x1 = 0.2654 | 974.62
303.15 K, x1 = 0.3214 | 964.66
303.15 K, x1 = 0.3854 | 953.43
303.15 K, x1 = 0.4515 | 941.97
303.15 K, x1 = 0.5024 | 933.26
303.15 K, x1 = 0.5685 | 922.06
303.15 K, x1 = 0.6214 | 913.21
303.15 K, x1 = 0.6754 | 904.26
303.15 K, x1 = 0.7451 | 892.85
303.15 K, x1 = 0.8114 | 882.12
303.15 K, x1 = 0.8841 | 870.51
303.15 K, x1 = 0.9514 | 859.89
303.15 K, x1 = 1 | 852.3
313.15 K, x1 = 0.0521 | 1004.87
313.15 K, x1 = 0.1142 | 993.77
313.15 K, x1 = 0.1721 | 983.53
313.15 K, x1 = 0.2302 | 973.36
313.15 K, x1 = 0.3065 | 960.16
313.15 K, x1 = 0.3615 | 950.77
313.15 K, x1 = 0.4115 | 942.31
313.15 K, x1 = 0.4841 | 930.18
313.15 K, x1 = 0.5547 | 918.53
313.15 K, x1 = 0.6208 | 907.77
313.15 K, x1 = 0.7055 | 894.15
313.15 K, x1 = 0.7805 | 882.26
313.15 K, x1 = 0.8372 | 873.36
313.15 K, x1 = 0.8947 | 864.42
313.15 K, x1 = 0.9539 | 855.29
323.15 K, x1 = 0.0575 | 994.81
323.15 K, x1 = 0.1247 | 982.32
323.15 K, x1 = 0.2011 | 968.35
323.15 K, x1 = 0.2784 | 954.42
323.15 K, x1 = 0.338 | 943.85
323.15 K, x1 = 0.4015 | 932.73
323.15 K, x1 = 0.4697 | 920.97
323.15 K, x1 = 0.5389 | 909.19
323.15 K, x1 = 0.6003 | 898.9
323.15 K, x1 = 0.6674 | 887.8
323.15 K, x1 = 0.7245 | 878.46
323.15 K, x1 = 0.7806 | 869.38
323.15 K, x1 = 0.8341 | 860.82
323.15 K, x1 = 0.8947 | 851.21
323.15 K, x1 = 0.9481 | 842.83
323.15 K, x1 = 1 | 834.76
333.15 K, x1 = 0.0462 | 987.58
333.15 K, x1 = 0.1025 | 977.11
333.15 K, x1 = 0.1724 | 964.26
333.15 K, x1 = 0.2354 | 952.85
333.15 K, x1 = 0.2951 | 942.18
333.15 K, x1 = 0.3658 | 929.72
333.15 K, x1 = 0.4315 | 918.31
333.15 K, x1 = 0.5007 | 906.49
333.15 K, x1 = 0.5714 | 894.57
333.15 K, x1 = 0.6378 | 883.55
333.15 K, x1 = 0.7047 | 872.6
333.15 K, x1 = 0.7533 | 864.73
333.15 K, x1 = 0.8258 | 853.13
333.15 K, x1 = 0.8846 | 843.83
333.15 K, x1 = 0.9479 | 833.93
333.15 K, x1 = 1 | 825.86
343.15 K, x1 = 0.0675 | 974.69
343.15 K, x1 = 0.1353 | 962.13
343.15 K, x1 = 0.2024 | 949.85
343.15 K, x1 = 0.2715 | 937.41
343.15 K, x1 = 0.3376 | 925.68
343.15 K, x1 = 0.4061 | 913.71
343.15 K, x1 = 0.4719 | 902.38
343.15 K, x1 = 0.5422 | 890.46
343.15 K, x1 = 0.6103 | 879.09
343.15 K, x1 = 0.6749 | 868.44
343.15 K, x1 = 0.7405 | 857.78
343.15 K, x1 = 0.8049 | 847.44
343.15 K, x1 = 0.8674 | 837.54
343.15 K, x1 = 0.9308 | 827.6
343.15 K, x1 = 0.9788 | 820.15
343.15 K, x1 = 1 | 816.87
353.15 K, x1 = 0.0567 | 967.91
353.15 K, x1 = 0.1134 | 957.31
353.15 K, x1 = 0.1826 | 944.57
353.15 K, x1 = 0.2527 | 931.85
353.15 K, x1 = 0.3072 | 922.09
353.15 K, x1 = 0.3857 | 908.27
353.15 K, x1 = 0.4584 | 895.67
353.15 K, x1 = 0.5036 | 887.95
353.15 K, x1 = 0.5757 | 875.79
353.15 K, x1 = 0.6382 | 865.4
353.15 K, x1 = 0.7016 | 855.01
353.15 K, x1 = 0.7613 | 845.35
353.15 K, x1 = 0.8139 | 836.93
353.15 K, x1 = 0.8846 | 825.75
353.15 K, x1 = 0.9378 | 817.44
353.15 K, x1 = 1 | 807.81

Cc1cccc(C)c1 [1,3-dimethylbenzene] + CN1CCCC1=O
Details | mass density [kg/m3]
293.15 K, x1 = 0.0451 | 1024.18
293.15 K, x1 = 0.1145 | 1011.33
293.15 K, x1 = 0.1874 | 998.07
293.15 K, x1 = 0.2451 | 987.76
293.15 K, x1 = 0.3258 | 973.58
293.15 K, x1 = 0.3987 | 961
293.15 K, x1 = 0.4657 | 949.63
293.15 K, x1 = 0.5214 | 940.31
293.15 K, x1 = 0.5985 | 927.59
293.15 K, x1 = 0.6584 | 917.85
293.15 K, x1 = 0.7214 | 907.73
293.15 K, x1 = 0.7987 | 895.48
293.15 K, x1 = 0.8547 | 886.71
293.15 K, x1 = 0.9048 | 878.92
293.15 K, x1 = 0.9597 | 870.47
293.15 K, x1 = 1 | 864.31
303.15 K, x1 = 0.0541 | 1013.3
303.15 K, x1 = 0.1134 | 1002.37
303.15 K, x1 = 0.1954 | 987.52
303.15 K, x1 = 0.2562 | 976.72
303.15 K, x1 = 0.3214 | 965.31
303.15 K, x1 = 0.3895 | 953.58
303.15 K, x1 = 0.4487 | 943.53
303.15 K, x1 = 0.5014 | 934.7
303.15 K, x1 = 0.5782 | 922.02
303.15 K, x1 = 0.6484 | 910.6
303.15 K, x1 = 0.7154 | 899.86
303.15 K, x1 = 0.7654 | 891.93
303.15 K, x1 = 0.8241 | 882.72
303.15 K, x1 = 0.8815 | 873.79
303.15 K, x1 = 0.9465 | 863.8
303.15 K, x1 = 1 | 855.64
313.15 K, x1 = 0.0487 | 1005.18
313.15 K, x1 = 0.1151 | 992.96
313.15 K, x1 = 0.1745 | 982.21
313.15 K, x1 = 0.2495 | 968.86
313.15 K, x1 = 0.3147 | 957.46
313.15 K, x1 = 0.3851 | 945.34
313.15 K, x1 = 0.4587 | 932.89
313.15 K, x1 = 0.5185 | 922.93
313.15 K, x1 = 0.6214 | 906.08
313.15 K, x1 = 0.6785 | 896.89
313.15 K, x1 = 0.7484 | 885.77
313.15 K, x1 = 0.7945 | 878.53
313.15 K, x1 = 0.8521 | 869.55
313.15 K, x1 = 0.9021 | 861.83
313.15 K, x1 = 0.9548 | 853.77
313.15 K, x1 = 1 | 846.9
323.15 K, x1 = 0.0548 | 995.37
323.15 K, x1 = 0.1154 | 984.22
323.15 K, x1 = 0.1754 | 973.34
323.15 K, x1 = 0.2354 | 962.63
323.15 K, x1 = 0.2965 | 951.89
323.15 K, x1 = 0.3551 | 941.73
323.15 K, x1 = 0.4158 | 931.36
323.15 K, x1 = 0.4814 | 920.31
323.15 K, x1 = 0.5385 | 910.84
323.15 K, x1 = 0.5821 | 903.68
323.15 K, x1 = 0.6514 | 892.44
323.15 K, x1 = 0.7085 | 883.3
323.15 K, x1 = 0.7765 | 872.54
323.15 K, x1 = 0.8512 | 860.88
323.15 K, x1 = 0.9374 | 847.61
323.15 K, x1 = 1 | 838.09
333.15 K, x1 = 0.0451 | 987.86
333.15 K, x1 = 0.1102 | 975.88
333.15 K, x1 = 0.1985 | 959.95
333.15 K, x1 = 0.2511 | 950.64
333.15 K, x1 = 0.3201 | 938.59
333.15 K, x1 = 0.3952 | 925.71
333.15 K, x1 = 0.4625 | 914.36
333.15 K, x1 = 0.5214 | 904.57
333.15 K, x1 = 0.5985 | 891.95
333.15 K, x1 = 0.6584 | 882.28
333.15 K, x1 = 0.7121 | 873.71
333.15 K, x1 = 0.7741 | 863.94
333.15 K, x1 = 0.8351 | 854.42
333.15 K, x1 = 0.8812 | 847.31
333.15 K, x1 = 0.9487 | 836.99
333.15 K, x1 = 1 | 829.22
343.15 K, x1 = 0.0547 | 977.18
343.15 K, x1 = 0.1241 | 964.43
343.15 K, x1 = 0.1887 | 952.77
343.15 K, x1 = 0.2654 | 939.18
343.15 K, x1 = 0.3214 | 929.42
343.15 K, x1 = 0.3985 | 916.19
343.15 K, x1 = 0.4658 | 904.84
343.15 K, x1 = 0.5214 | 895.6
343.15 K, x1 = 0.5985 | 882.97
343.15 K, x1 = 0.6541 | 874
343.15 K, x1 = 0.7014 | 866.44
343.15 K, x1 = 0.7654 | 856.33
343.15 K, x1 = 0.8354 | 845.41
343.15 K, x1 = 0.8924 | 836.63
343.15 K, x1 = 0.9469 | 828.32
343.15 K, x1 = 1 | 820.29
353.15 K, x1 = 0.0544 | 968.44
353.15 K, x1 = 0.1214 | 956.1
353.15 K, x1 = 0.1958 | 942.64
353.15 K, x1 = 0.2562 | 931.9
353.15 K, x1 = 0.3214 | 920.5
353.15 K, x1 = 0.3985 | 907.25
353.15 K, x1 = 0.4515 | 898.28
353.15 K, x1 = 0.5114 | 888.28
353.15 K, x1 = 0.5941 | 874.69
353.15 K, x1 = 0.6621 | 863.71
353.15 K, x1 = 0.7214 | 854.26
353.15 K, x1 = 0.7852 | 844.22
353.15 K, x1 = 0.8471 | 834.59
353.15 K, x1 = 0.8915 | 827.76
353.15 K, x1 = 0.9565 | 817.85
353.15 K, x1 = 1 | 811.29

From the NIST ThermoML archive (doi:10.1016/j.jct.2006.11.003)
